EP0336326A2, “3-Aminodihydrothiophene-2-one peptide derivatives, processes for the preparation and therapeutic use” (POLI INDUSTRIA CHIMICA S.p.A., priority 1988, dated 1989)
Like-named read-outs stand apart in the source and are kept apart here.

Key:
4% mucin suspension = experiment: in vitro mucolytic activity test with a 4% mucin suspension; format: biochemical; details: equimolar concentrations (0.00625 M), after hydrolysis with rat serum; 6250 µM
[1] = mucolytic-expectorant activity: test of fluorescein elimination from the respiratory tract; format: in vivo; details: po; 0.5 mM/kg orally; in comparison with the controls; read-out: increase in the dye excretion
[2] = system: elastase-induced emphysema; experiment: antiemphysema activity: pancreatic elastase induced emphysema, mean linear intercept (MLI) morphometry; format: in vivo; details: hamster; 0.25 mM/kg per os, during 4 weeks
Excerpt: The compounds of the present invention also display an interesting antiemphysema activity in the hamster (P.J. Stone et al., Amer. Rev. Respir. Dis., 124, 56, 1981). Emphysema induced by pancreatic elastase is morphometrically measured by evaluating, in µm, the mean linear intercept (MLI) (J. Kleinerman et al., Amer. Rev. Respir. Dis., 121, 381, 1980).

hystamine shock = experiment: antibronchospastic activity: histamine shock test; format: in vivo; details: Cavia porcellus, ip; guinea pig; 0.25 mM/kg i.p.; compared with the basal values; read-out: increase resistance times against shock
Method: The antibronchospastic activity of the compounds of the present invention was evaluated by the hystamine shock test in guinea pig (P. C. Braga et al., Min. Pneumol., 23, 447, 1984).

[3] = system: Bordetella pertussis induced edema; experiment: antiinflammatory activity: Bordetella pertussis induced edema test; format: in vivo; details: in Rattus norvegicus, po, 24 h, read-out: reduce the edema after 24 hours
Method: The antiinflammatory activity was evaluated by the test of Bordetella pertussis induced edema in the rat (F. Capasso, Agents and Actions, 11, 741, 1981).

CCl4intoxication = experiment: hepatoprotective activity: CCl4 intoxication test; format: in vivo; details: ip, rat, 0.25 mM/kg i.p.
Method: The hepatoprotective activity was determined by the CCl4intoxication test in the rat (E. C. Ferreyra et al., Toxic. Appl. Pharmacol., 27, 558, 1974).

[4] = in comparison with intoxicated controls, read-out: reduce serum GOT
[5] = in comparison with the intoxicated controls, read-out: reduce serum GPT

Structure (SMILES)	reductions in viscosity (4% mucin suspension)	change in vivo at 500 µM, 500 µmol/kg [1]	reduce the MLI increase in elastase-induced emphysema [2]	change in vivo at 250 µM, 250 µmol/kg (hystamine shock)	inhibition in vivo at 500 µM, 500 µmol/kg [3]	inhibition in vivo at 250 µM, 250 µmol/kg (CCl4intoxication; [4])	inhibition in vivo at 250 µM, 250 µmol/kg (CCl4intoxication; [5])
CC(SC(=O)c1cccs1)C(=O)NCC(=O)NC1CCSC1=O (racemic) [Compound III]	13.1%	71.3%	32.7%	186%	41.8%	54.7%	54.1%
CC(S)C(=O)NCC(=O)NC1CCSC1=O (stereo not shown) [Compound II, 3-[(2-thiolpropionyl)glycyl]aminodihydrothiophene-2-one]	13.4%	72%	30.6%	190%	42.1%	55.8%	52.3%
CC(=O)N[C@@H](CS)C(=O)N[C@H]1CCSC1=O [Compound IV, L-3-[(N-acetylcysteinyl)]aminodihydrothiophene-2-one]	12.8%	68.5%	31.8%	180%	36.7%	52.7%	48.7%
CC(=O)N[C@@H](CSC(=O)c1cccs1)C(=O)NC1CCSC1=O (stereo partly drawn) [Compound V, 3-(N-acetyl-S-(2-thenoyl)-cysteinyl)aminodihydrothiophene-2-one]	12.4%	67.6%	32.7%	181%	35.8%	56.1%	47.6%
CC(S)C(=O)NCC(=O)N1CSC[C@H]1C(=O)NC1CCSC1=O (stereo partly drawn) [Compound VI, 3-{L-3-[(2-thiolpropionyl)glycyl]thiazolidin-4-carbonyl} aminodihydrothiophene-2-one]	13.4%	74.1%	35.6%	191%	38.7%	58.5%	52.8%
CC(S)C(=O)NCC(=O)N1CSC[C@H]1C(=O)O (stereo partly drawn) [Compound VII, L-3-[(2-thiolpropionyl)glycyl]thiazolidin-4-carboxylic acid]	13.6%	71.9%	34.9%	188%	37.9%	59.3%	51.9%
CC(SC(=O)c1cccs1)C(=O)NCC(=O)N1CSC[C@H]1C(=O)NC1CCSC1=O (stereo partly drawn) [Compound VIII, 3-{L-3-[(2-thenoylthiopropionyl)glycyl]thiazolidin-4-carbonyl}aminodihydrothiophene-2-one]	13.2%	70.8%	35.4%	188%	38.1%	60.1%	54.1%
CC(=O)N[C@@H](CS)C(=O)O [N-acetyl-cysteine, reference compound]	10.8%	45.6%		168%	23.2%	39.9%	37.8%
CC(S)C(=O)NCC(=O)O (stereo not shown) [tiopronin, reference compound]	11.5%	55.8%		166%	28.6%	42.2%	39.8%
